Assay results published in patent publication US7138361B2, “Herbicidal heterocycles” (E. I. du Pont de Nemours and Company, priority 2000, dated 2006).

Legend:
Type in all cases: in vivo
[1] = test system: velvetleaf (Abutilon theophrasti); assay: Test C preemergence
How it was run: (§1)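 Pre- and postemergence treatments used a non-phytotoxic solvent/surfactant formulation; post-treated plants measured 2 to 18 cm. Greenhouse hold 12–14 d; % control estimated visually relative to controls.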

[2] = test system: giant foxtail (Setaria faberii); assay: Test C preemergence
How it was run: as §1

soybean (Glycine max) = assay: Test C preemergence
How it was run: as §1

[3] = test system: pigweed (Amaranthus retroflexus); assay: Test C preemergence
How it was run: as §1

corn (Zea mays) [4] = assay: Test C preemergence
How it was run: as §1

[5] = test system: goosegrass (Eleusine indica); assay: Test C preemergence
How it was run: as §1

[6] = test system: johnsongrass (Sorghum halepense); assay: Test C preemergence
How it was run: as §1

[7] = test system: yellow nutsedge (Cyperus esculentus); assay: Test C preemergence
How it was run: as §1

[8] = test system: morningglory (Ipomoea hederacea); assay: Test C preemergence
How it was run: as §1

[9] = test system: lambsquarters (Chenopodium album); assay: Test C preemergence
How it was run: as §1

[10] = test system: crabgrass (Digitaria sanguinalis); assay: Test C preemergence
How it was run: as §1

Sunflower = assay: Test C preemergence
[11] = test system: woolly cupgrass (Eriochloa villosa); assay: Test C preemergence
How it was run: as §1

[12] = test system: bermudagrass (Cynodon dactylon); assay: Test C preemergence
How it was run: as §1

[13] = test system: Surinam grass (Brachiaria decumbens); assay: Test C preemergence
How it was run: as §1

[14] = test system: velvetleaf (Abutilon theophrasti); assay: Test B postemergence
How it was run: (§2)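 Ratings on a 0 to 100 visual scale (100 complete control) compare treated plants with controls 13 to 15 days after application. Treatments were pre- or postemergence sprays of compound in non-phytotoxic solvent with surfactant.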

wild oat (Avena fatua) = assay: Test B postemergence
How it was run: as §2

corn (Zea mays) [15] = assay: Test B postemergence
How it was run: as §2

[16] = test system: wheat (Triticum aestivum); assay: Test B postemergence
How it was run: as §2

[17] = test system: blackgrass (Alopecurus myosuroides); assay: Test B postemergence
How it was run: as §2

[18] = Preemergence, Rate 500 g/ha, scale 0 to 100
[19] = Rate 62 g/ha, scale 0 to 100, 0 no effect, 100 complete control
[20] = preemergence, Rate 250 g/ha, visual evaluation after 12 to 14 days
[21] = preemergence, Rate 125 g/ha, scale 0 to 100, 0 no effect, 100 complete control
[22] = Rate 125 g/ha, scale 0 (no effect) to 100 (complete control), 13 to 15 days
[23] = Rate 500 g/ha, scale 0 to 100, 0 is no effect, 100 is complete control, 13 to 15 days
[24] = Rate 125 g/ha, scale 0 to 100, 0 no effect, 100 complete control
[25] = preemergence, Rate 31 g/ha, scale 0 to 100
[26] = preemergence, Rate 62 g/ha, scale 0 to 100
[27] = preemergence, Rate 250 g/ha, scale 0 to 100, 0 no effect, 100 complete control
[28] = Rate 500 g/ha, scale 0 (no effect) to 100 (complete control), 13 to 15 days

CC(C)(C)c1ccn(C2CCN(c3cccc(C(F)(F)F)c3)C2=S)n1 (centres unmarked) [Compound 22]
0: Plant response rating, Velvetleaf [1, 18] | Plant response rating, Velvetleaf [1, 19] | Plant response rating (0 to 100), Velvetleaf [1, 20] | Plant response rating, Velvetleaf [1, 21] | Plant response rating (0 to 100), Foxtail, Giant [2, 20] | Plant response rating, Foxtail, Giant [2, 21] | Plant response rating, Nutsedge [7, 19] | Plant response rating (0 to 100), Nutsedge [7, 20] | Plant response rating, Nutsedge [7, 21] | Plant response rating, Morningglory [8, 18] | Plant response rating, Morningglory [8, 19] | Plant response rating (0 to 100), Morningglory [8, 20] | Plant response rating, Morningglory [8, 21] | Plant response rating, Sunflower (Sunflower; [19]) | Plant response rating, Sunflower (Sunflower; Rate 500 g/ha, scale 0 to 100) | Plant response rating, Surinam grass [13, 19] | Plant response rating, Wild Oat (wild oat (Avena fatua); [22]) | Plant response rating, Wild Oat (wild oat (Avena fatua); [23]) | Plant response rating, Corn (corn (Zea mays) [15]; [22]) | Plant response rating, Corn (corn (Zea mays) [15]; [23]) | Plant response rating, Wheat [16, 22] | Plant response rating, Wheat [16, 23] | Plant response rating, Blackgrass [17, 22] | Plant response rating, Blackgrass [17, 23]
40: Plant response rating, Soybean (soybean (Glycine max); [18]) | Plant response rating (0 to 100), Soybean (soybean (Glycine max); [20]) | Plant response rating, Soybean (soybean (Glycine max); [21]) | Plant response rating, Johnsongrass [6, 18] | Plant response rating (0 to 100), Johnsongrass [6, 20] | Plant response rating, Cupgrass, Woolly [11, 19] | Plant response rating, Surinam grass [13, 21]
90: Plant response rating, Goosegrass [5, 19] | Plant response rating, Goosegrass [5, 21] | Plant response rating, Surinam grass [13, 18]
100: Plant response rating, Foxtail, Giant [2, 18] | Plant response rating, Pigweed [3, 18] | Plant response rating, Pigweed [3, 19] | Plant response rating, Goosegrass [5, 18] | Plant response rating (0 to 100), Goosegrass [5, 20] | Plant response rating, Lambsquarters [9, 18] | Plant response rating, Lambsquarters [9, 19] | Plant response rating (0 to 100), Lambsquarters [9, 20] | Plant response rating, Lambsquarters [9, 21] | Plant response rating, Crabgrass [10, 18] | Plant response rating (0 to 100), Crabgrass [10, 20] | Plant response rating, Crabgrass [10, 21] | Plant response rating, Cupgrass, Woolly [11, 18] | Plant response rating (0 to 100), Cupgrass, Woolly [11, 20] | Plant response rating, Bermudagrass [12, 18] | Plant response rating (0 to 100 where 0 is no effect and 100 is complete control), Bermudagrass [12, 20] | Plant response rating, Bermudagrass [12, 21]
70: Plant response rating, Cupgrass, Woolly [11, 21]
30: Plant response rating, Foxtail, Giant [2, 19] | Plant response rating, Soybean (soybean (Glycine max); [19]) | Plant response rating, Corn (corn (Zea mays) [4]; [18]) | Plant response rating, Johnsongrass [6, 21] | Plant response rating, Bermudagrass [12, 19] | Plant response rating, Velvetleaf [14, 23]
50: Plant response rating (0 to 100), Pigweed [3, 20] | Plant response rating, Pigweed [3, 21] | Plant response rating, Crabgrass [10, 19]
20: Plant response rating, Corn (corn (Zea mays) [4]; [19]) | Plant response rating (0 to 100), Corn (corn (Zea mays) [4]; [20]) | Plant response rating, Corn (corn (Zea mays) [4]; [21]) | Plant response rating, Johnsongrass [6, 19] | Plant response rating, Nutsedge [7, 18] | Plant response rating, Velvetleaf [14, 22]
60: Plant response rating (0 to 100), Surinam grass [13, 20]

Cc1cc(C)nc(N2CCC(n3ccc(C(C)(C)C)n3)C2=O)c1 (centres unmarked) [Compound 138]
80: Plant response rating, Foxtail, Giant [2, 26] | Plant response rating, Goosegrass [5, 26] | Plant response rating, Morningglory [8, 24] | Plant response rating, Morningglory [8, 27]
30: Plant response rating, Soybean (soybean (Glycine max); [26]) | Plant response rating, Pigweed [3, 26] | Plant response rating, Corn (corn (Zea mays) [4]; [27]) | Plant response rating, Johnsongrass [6, 24] | Plant response rating, Morningglory [8, 25] | Plant response rating, Morningglory [8, 26]
0: Plant response rating, Velvetleaf [1, 24] | Plant response rating, Velvetleaf [1, 25] | Plant response rating, Velvetleaf [1, 26] | Plant response rating, Velvetleaf [1, 27] | Plant response rating, Pigweed [3, 25] | Plant response rating, Corn (corn (Zea mays) [4]; [24]) | Plant response rating, Corn (corn (Zea mays) [4]; [25]) | Plant response rating, Corn (corn (Zea mays) [4]; [26]) | Plant response rating, Johnsongrass [6, 25] | Plant response rating, Johnsongrass [6, 26] | Plant response rating, Nutsedge [7, 24] | Plant response rating, Nutsedge [7, 25] | Plant response rating, Nutsedge [7, 26] | Plant response rating, Sunflower (Sunflower; [24]) | Plant response rating, Cupgrass, Woolly [11, 25] | Plant response rating, Surinam grass [13, 24] | Plant response rating, Surinam grass [13, 25] | Plant response rating, Surinam grass [13, 26] | Plant response rating, Velvetleaf [14, 24] | Plant response rating, Velvetleaf [14, 28] | Plant response rating, Wild Oat (wild oat (Avena fatua); [24]) | Plant response rating, Wild Oat (wild oat (Avena fatua); [28]) | Plant response rating, Corn (corn (Zea mays) [15]; [24]) | Plant response rating, Corn (corn (Zea mays) [15]; [28]) | Plant response rating, Wheat [16, 24] | Plant response rating, Wheat [16, 28] | Plant response rating, Blackgrass [17, 24] | Plant response rating, Blackgrass [17, 28]
40: Plant response rating, Johnsongrass [6, 27] | Plant response rating, Nutsedge [7, 27] | Plant response rating, Cupgrass, Woolly [11, 26]
70: Plant response rating, Crabgrass [10, 26] | Plant response rating, Bermudagrass [12, 24] | Plant response rating, Bermudagrass [12, 26]
50: Plant response rating, Foxtail, Giant [2, 25] | Plant response rating, Pigweed [3, 24] | Plant response rating, Pigweed [3, 27]
60: Plant response rating, Soybean (soybean (Glycine max); [24]) | Plant response rating, Cupgrass, Woolly [11, 24] | Plant response rating, Bermudagrass [12, 25]
100: Plant response rating, Foxtail, Giant [2, 24] | Plant response rating, Foxtail, Giant [2, 27] | Plant response rating, Soybean (soybean (Glycine max); [27]) | Plant response rating, Goosegrass [5, 27] | Plant response rating, Lambsquarters [9, 24] | Plant response rating, Lambsquarters [9, 25] | Plant response rating, Lambsquarters [9, 26] | Plant response rating, Lambsquarters [9, 27] | Plant response rating, Crabgrass [10, 24] | Plant response rating, Crabgrass [10, 27] | Plant response rating, Cupgrass, Woolly [11, 27] | Plant response rating, Bermudagrass [12, 27] | Plant response rating, Surinam grass [13, 27]
90: Plant response rating, Goosegrass [5, 24]
20: Plant response rating, Goosegrass [5, 25] | Plant response rating, Crabgrass [10, 25]
